Test results: the supplement of paper PMC10307832

Tests used:
Assay in all cases: relative viability (nuclei count vs DMSO), 5 days (fraction); higher = more cells survive
Shikonin + Decitabine = compound: CC(C)=CC[C@@H](O)C1=CC(=O)c2c(O)ccc(O)c2C1=O [Shikonin] + Nc1ncn([C@H]2C[C@H](O)[C@@H](CO)O2)c(=O)n1 [Decitabine] (partner 2 µM)
How it was run: (§1)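 Lung cancer cell lines, seeded in 1536-well plates, were treated the following day by pin tool with a single drug or with five library-drug doses (not always all listed) in √10 steps on top of a fixed anchor-drug dose. Cells were fixed and nuclei stained in one step after 5 days, and nuclei were counted. Relative viability is the nuclei count for treated wells divided by that for vehicle wells, reported as medians of duplicate plates.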

[1] = compound: CC(C)N(CCCNC(=O)Nc1ccc(C(C)(C)C)cc1)C[C@H]1O[C@@H](n2ccc3c(N)ncnc32)[C@H](O)[C@@H]1O + CC1(C)CCC(c2ccc(Cl)cc2)=C(CN2CCN(c3ccc(C(=O)NS(=O)(=O)c4ccc(N[C@H](CCN5CCOCC5)CSc5ccccc5)c(S(=O)(=O)C(F)(F)F)c4)cc3)CC2)C1 [Navitoclax] (partner 0.5 µM)
How it was run: as §1

Shikonin + Trametinib = compound: CC(C)=CC[C@@H](O)C1=CC(=O)c2c(O)ccc(O)c2C1=O [Shikonin] + CC(=O)Nc1cccc(-n2c(=O)n(C3CC3)c(=O)c3c(Nc4ccc(I)cc4F)n(C)c(=O)c(C)c32)c1 [Trametinib] (partner 0.02 µM)
How it was run: as §1

Shikonin + Phenformin = compound: CC(C)=CC[C@@H](O)C1=CC(=O)c2c(O)ccc(O)c2C1=O [Shikonin] + N=C(N)NC(=N)NCCc1ccccc1 [Phenformin] (partner 250 µM)
How it was run: as §1

Cell Line | relative viability (Shikonin + Decitabine; first compound 0.01 µM) | relative viability (Shikonin + Decitabine; first compound 0.1 µM) | relative viability (Shikonin + Decitabine; first compound 0.3162 µM) | relative viability (Shikonin + Decitabine; first compound 1 µM) | relative viability ([1]; first compound 0.08 µM) | relative viability ([1]; first compound 0.253 µM) | relative viability ([1]; first compound 0.8 µM) | relative viability ([1]; first compound 2.53 µM) | relative viability ([1]; first compound 8 µM) | relative viability (Shikonin + Trametinib; first compound 0.01 µM) | relative viability (Shikonin + Trametinib; first compound 0.1 µM) | relative viability (Shikonin + Trametinib; first compound 0.3162 µM) | relative viability (Shikonin + Trametinib; first compound 1 µM) | relative viability (Shikonin + Phenformin; first compound 0.01 µM) | relative viability (Shikonin + Phenformin; first compound 0.1 µM) | relative viability (Shikonin + Phenformin; first compound 0.3162 µM) | relative viability (Shikonin + Phenformin; first compound 1 µM)
NCI-H2009 | 0.335 | 0.399 | 0.399 | 0.222 | 1.19 | 1.17 | 1.19 | 1.17 | 1.13 | 0.256 | 0.292 | 0.245 | 0.254 | 0.475 | 0.568 | 0.433 | 0.181
NCI-H441 | 0.249 | 0.26 | 0.258 | 0.206 | – | 0.66 | 0.682 | 0.698 | 0.63 | 0.468 | 0.487 | 0.528 | 0.451 | 0.941 | 1.03 | 0.761 | 0.815
PC-3 [JPC-3] | 0.765 | 0.896 | 0.843 | 0.82 | 0.784 | 0.752 | 0.807 | 0.797 | 0.7 | 0.664 | 0.688 | 0.669 | 0.616 | 0.488 | 0.231 | 0.477 | 0.428
HARA | 0.516 | 0.674 | 0.691 | 0.591 | 1.08 | 1.07 | 1.15 | 1.13 | 0.941 | 0.68 | 0.54 | 0.893 | 0.627 | 0.431 | 0.707 | 0.538 | 0.491
NCI-H2126 | 0.593 | 0.589 | 0.628 | 0.559 | 0.887 | 0.825 | 0.851 | 0.848 | 0.776 | 0.549 | 0.553 | 0.607 | 0.571 | 0.518 | 0.571 | 0.565 | 0.513
NCI-H1437 | 0.607 | 0.594 | 0.524 | 0.536 | 1 | 1.11 | 1.07 | 1.14 | 1.04 | 0.539 | 0.433 | 0.458 | 0.504 | 0.299 | 0.338 | 0.337 | 0.321
NCI-H1792 | 0.567 | 0.553 | 0.644 | 0.681 | 0.634 | 0.589 | 0.623 | 0.591 | 0.571 | 0.476 | 0.327 | 0.424 | 0.553 | 0.257 | 0.185 | 0.241 | 0.393
ChaGo-K-1 | 0.521 | 0.529 | 0.513 | 0.567 | 1.01 | 1.02 | 0.92 | 1.01 | 1.05 | 0.883 | 0.98 | 0.903 | 0.972 | 0.475 | 0.542 | 0.543 | 0.471
NCI-H727 | 0.893 | 1.02 | 0.927 | 0.883 | 0.416 | 0.389 | 0.499 | 0.534 | 0.506 | 0.351 | 0.375 | 0.389 | 0.409 | 0.523 | 0.604 | 0.579 | 0.543
